Test results from US20260248783A1 (ASCLETIS BIOSCIENCE CO., LTD., priority 2021, published 2026).
Structures can show the parent of a compound that is named as a salt.

Tests used:
[1] = biological target: T1, extracellular domains of PD-L1 (Homo sapiens, UniProt Q9NZQ7); test: PD-L1 Dimerization; type: biochemical; conditions: PD-L1-Eu and PD-L1-A2, ratio 665 nm/615 nm
T1 construct: specifically dimerize the extracellular domains of PD-L1
Procedure: Example 108. PD-L1 Dimerization
Compounds were tested in biochemical protein-protein interaction assays to determine if they can specifically dimerize the extracellular domains of PD-L1. • (1) Diluted cpd 1:3 in succession in DMSO for each column for 10 samples • (2) Transferred 0.2 μL cpds solution in each row to 384 assay plate using Echo, each column containing 2 replicates • (3) Added 20 μL prepared mixture include PD-L1-Eu and PD-L1-A2 solution to assay plate, centrifuged at 1000 rpm for 1 min. • (4) Incubated at 25° C. for […]. • (5) Read fluorescence signal on Envision 2104 plate reader. • (6) Read the Ratio (665 nm/615 nm) signal on Envision. • (7) Analyzed the raw data using the equation (V. Data analysis)

[2] = biological target: T2, PD-1/PD-L1 (Homo sapiens, UniProt Q9NZQ7); test: PD-1/PD-L1 Homogeneous Time-Resolved Fluorescence (HTRF) Binding Assay; conditions: PD-1/PD-L1 HTRF activity; 3 nM PD1, 10 nM PD-L1, 25° C.
T2 construct: Recombinant human PD-L1 protein (19-238) with a Histag at the C-terminus; purchased AcroBiosystems PD1-H5229 (PD-L1); PD1-H5257 (PD-1)
Method in brief: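 Human PD-L1 (19-238, His-tag) 10 nM and PD-1 (25-167, Fc-tag) 3 nM preincubated 40 min with inhibitor in PBS pH 7.4, 0.05% Tween-20, 0.1% BSA, 1% DMSO, 25 °C. Eu-anti-human IgG (1 nM) and anti-His-APC (20 nM) added, 60 min, 665/620 nm ratio; IC50 from percent control activity versus log concentration.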

[3] = tested on: Hep3B-OS8-hPDL1 and T cells; test: Hep3B-OS8-hPDL1 and T Cells Co-Culture Assay (IFN-γ by ELISA); type: cell-based; conditions: T-cell, Hep3B-OS8-hPDL1 and human CD3+ T cells, 72 hours, read-out: Tumor and T Cell EC50
Procedure: Example 110. Hep3B-OS8-hPDL1 and T Cells Co-Culture Assay
1. Hep3B-OS8-hPDL1 cells were cultured in 1640 medium supplemented with 10% fetal bovine serum, 1% penicillin and streptomycin, in which 100 μg/mL G418 and Hygromycin B were also added.
2. Hep3B-OS8-hPDL1 cells were harvested and treated with 10 μg/mL mitomycin C at 37° C. for 1.5 h, and the cells were then washed thoroughly with PBS for four times.
3. Cells were re-suspended with RPMI 1640 medium containing 10% FBS and the cell density was adjusted to 5×10^5 cells/mL.
4. Cells were seeded into 96-well flat bottom plate (2.5×10^4 cells/50 μL/well).
b. CD3+ T cells isolation (30 mL blood)
5. The human blood sample from an individual donor was diluted by the same volume of sterile PBS, for instance add 25 mL sterile PBS into 25 mL fresh whole blood and mix sufficiently by gentle shake.
6. Transferred 15 mL Lymphoprep medium into a new 50 mL centrifuge tube.
7. Added the diluted blood sample as soft as possible onto the surface of the Ficoll medium to make sure there is a clear dividing line between the two liquids, and the volume ratio between Ficoll and diluted blood (30 mL) is 1:2.
8. Moved the tube gently to centrifuge, at 1000×g, 25 min, 20° C., with the acceleration (5) and Min deceleration (0) settings during the centrifugation.
9. Four interfaces in all could be observed after the centrifugation, which are layers of plasma, mononuclear cells, the Ficoll medium and RBCs from top to bottom, and move the tube as gently as possible so as keep the four interfaces separated. Absorbed and transferred the second layer of mononuclear cells into another new sterile centrifuge tube carefully, and absorbed certain volume of plasma instead of the Ficoll medium if inevitable.
10. Added sterile PBS of the three times the volume of PBMCs in the tube with PBMC.
11. Washed the cells twice with 5-10 mL PBS before cell counting with cytometer. Centrifuge at 350×g, 10 min, 20° C. With the acceleration (5) and deceleration (5) settings during the centrifugation.
12. Resuspended the cells with recommended medium and adjust the density of the PBMCs to the final concentration of 5×10^7 cells/mL.
13. Isolated CD3+ T cells with EasySep™ Human T Cell Isolation Kit (STEMCELL Technologies #17951), and the cells were seeded into 96-well flat bottom plate (5×10^4 cells/100 μL/well). c. Compounds solutions preparation
14. Prepared the Compounds dilutions in RPMI 1640 medium with 10% FBS according to the Layout. 15. Added compounds into each well in a volume of 50 μL. {3 compounds (GLC01-258, GLC01-269, GLC01-465) in 7 concentrations (0.03, 0.1, 0.3, 1, 3, 10 and 30 μM) and 6 compounds (GLC01-411, GLC01-292, GLC01-445, GLC01-475, GLC01-470 and GLC01-468) in the same concentration (1 μM)}.
16. Keytruda was included as positive control, the concentration was 5 μg/mL. 17. Incubated for 72 hours at 37° C., 5% CO2.
18. Collected supernatant by centrifugation and measure IFN-γ by ELISA.

T1 sequence (Q9NZQ7 19-238 limits assumed): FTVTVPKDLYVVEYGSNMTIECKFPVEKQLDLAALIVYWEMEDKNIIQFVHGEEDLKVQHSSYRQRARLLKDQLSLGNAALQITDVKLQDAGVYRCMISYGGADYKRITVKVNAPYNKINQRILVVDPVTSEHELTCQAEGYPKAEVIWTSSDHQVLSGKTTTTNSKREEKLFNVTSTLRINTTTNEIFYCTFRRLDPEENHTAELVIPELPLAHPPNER
T2 sequence (Q9NZQ7 19-238): as the sequence (Q9NZQ7 19-238 limits assumed) above

| SMILES | EC50 [1] | IC50 [2] | EC50 [3] |
| --- | --- | --- | --- |
| Cc1cn2cc(-c3cccc(-c4cccc(-c5cc6c(=O)n(CCN7CC[C@H](C(=O)O)C7)c(C)cn6c5)c4Cl)c3Cl)cc2c(=O)n1CCN1CC[C@H](C(=O)O)C1 [Compound 53, (3S,3'S)-1,1′-(((2,2′-dichloro-[1,1′-biphenyl]-3,3′-diyl)bis(3-methyl-1-oxopyrrolo[1,2-a]pyrazine-7,2(1H)-diyl))bis(ethane-2,1-diyl))bis(pyrrolidine-3-carboxylic acid)] | – | < 10 nM | ≥ 100 nM |
| Cc1cn2nc(-c3cccc(-c4cccc(-c5cc6c(=O)n(CCN[C@@H](CO)C(=O)O)c(C)cn6n5)c4Cl)c3Cl)cc2c(=O)n1CCN[C@@H](CO)C(=O)O [Compound 57, (2S,2'S)-2,2′-((((2,2′-dichloro-[1,1′-biphenyl]-3,3′-diyl)bis(6-methyl-4-oxopyrazolo[1,5-a]pyrazine-2,5(4H)-diyl))bis(ethane-2,1-diyl))bis(azanediyl))bis(3-hydroxypropanoic acid)] | 50 to 100 nM | < 10 nM | < 50 nM |
| Cc1cn2cc(-c3cccc(-c4cccc(-c5cc6c(=O)n(CCN[C@@H](CO)C(=O)O)c(C)cn6c5)c4Cl)c3Cl)cc2c(=O)n1CCN[C@@H](CO)C(=O)O [Compound 63, (2S,2'S)-2,2′-((((2,2′-dichloro-[1,1′-biphenyl]-3,3′-diyl)bis(3-methyl-1-oxopyrrolo[1,2-a]pyrazine-7,2(1H)-diyl))bis(ethane-2,1-diyl))bis(azanediyl))bis(3-hydroxypropanoic acid)] | 50 to 100 nM | < 10 nM | ≥ 100 nM |
| Cn1c(C[C@@H]2CCCN2)nn2cc(-c3cccc(-c4cccc(-c5cc6c(=O)n(C)c(C[C@@H]7CCCN7)nn6c5)c4Cl)c3Cl)cc2c1=O [Compound 76, 6,6′-(2,2′-dichloro-[1,1′-biphenyl]-3,3′-diyl)bis(3-methyl-2-(((S)-pyrrolidin-2-yl)methyl)pyrrolo[2,1-f][1,2,4]triazin-4(3H)-one)] | < 50 nM | 10 to 100 nM | 50 to 100 nM |
| Cc1cn2nc(-c3cccc(-c4cccc(-c5cc6c(=O)n(CCNC7(C(=O)O)CC(O)C7)c(C)cn6n5)c4Cl)c3Cl)cc2c(=O)n1CCNC1(C(=O)O)CC(O)C1 (centres unmarked) [Compound 85] | 50 to 100 nM | 10 to 100 nM | < 50 nM |
| Cc1cn2nc(-c3cccc(-c4cccc(-c5cc6c(=O)n(CCN7CC[C@H](O)[C@H]7C(=O)O)c(C)cn6n5)c4Cl)c3Cl)cc2c(=O)n1CCN1CC[C@H](O)[C@H]1C(=O)O [Compound 89, (2S,2'S,3S,3'S)-1,1′-(((2,2′-dichloro-[1,1′-biphenyl]-3,3′-diyl)bis(6-methyl-4-oxopyrazolo[1,5-a]pyrazine-2,5(4H)-diyl))bis(ethane-2,1-diyl))bis(3-hydroxypyrrolidine-2-carboxylic acid)] | – | 10 to 100 nM | < 50 nM |
| Cc1cn2nc(-c3cccc(-c4cccc(-c5cc6c(=O)n(CCN[C@](C)(CO)C(=O)O)c(C)cn6n5)c4Cl)c3Cl)cc2c(=O)n1CCN[C@](C)(CO)C(=O)O [Compound 96, (2R,2′R)-2,2′-((((2,2′-dichloro-[1,1′-biphenyl]-3,3′-diyl)bis(6-methyl-4-oxopyrazolo[1,5-a]pyrazine-2,5(4H)-diyl))bis(ethane-2,1-diyl))bis(azanediyl))bis(3-hydroxy-2-methylpropanoic acid)] | ≥ 100 nM | 10 to 100 nM | – |
| Cc1cn2nc(-c3cccc(-c4cccc(-c5cc6c(=O)n(CCN[C@]7(C(=O)O)C[C@@H](O)C7)c(C)cn6n5)c4Cl)c3Cl)cc2c(=O)n1CCN[C@]1(C(=O)O)C[C@@H](O)C1 [Compound 101, (1r,1′r,3r,3′r)-1,1′-((((2,2′-dichloro-[1,1′-biphenyl]-3,3′-diyl)bis(6-methyl-4-oxopyrazolo[1,5-a]pyrazine-2,5(4H)-diyl))bis(ethane-2,1-diyl))bis(azanediyl))bis(3-hydroxycyclobutane-1-carboxylic acid)] | < 50 nM | < 10 nM | – |

Continued, values first:

| EC50 [1] | IC50 [2] | EC50 [3] | SMILES |
| --- | --- | --- | --- |
| < 50 nM | < 10 nM | < 50 nM | Cc1cn2nc(-c3cccc(-c4cccc(-c5cc6c(=O)n(C[C@@H]7CCCN7)c(C)cn6n5)c4Cl)c3Cl)cc2c(=O)n1C[C@@H]1CCCN1 [Compound 36, 2,2′-(2,2′-dichloro-[1,1′-biphenyl]-3,3′-diyl)bis(6-methyl-5-(((S)-pyrrolidin-2-yl)methyl)pyrazolo[1,5-a]pyrazin-4(5H)-one) dihydrochloride] |
| 50 to 100 nM | < 10 nM | ≥ 100 nM | Cc1cn2nc(-c3cccc(-c4cccc(-c5cc6c(=O)n(CCN7CC[C@H](C(=O)O)C7)c(C)cn6n5)c4Cl)c3Cl)cc2c(=O)n1CCN1CC[C@H](C(=O)O)C1 [Compound 47, (3S,3'S)-1,1′-(((2,2′-dichloro-[1,1′-biphenyl]-3,3′-diyl)bis(6-methyl-4-oxopyrazolo[1,5-a]pyrazine-2,5(4H)-diyl))bis(ethane-2,1-diyl))bis(pyrrolidine-3-carboxylic acid)] |
| 50 to 100 nM | < 10 nM | 50 to 100 nM | Cc1cn2cc(-c3cccc(-c4cccc(-c5cc6c(=O)n(CCNCCO)c(C)cn6c5)c4Cl)c3Cl)cc2c(=O)n1CCNCCO [Compound 51, 7,7′-(2,2′-dichloro-[1,1′-biphenyl]-3,3′-diyl)bis(2-(2-((2-hydroxyethyl)amino)ethyl)-3-methylpyrrolo[1,2-a]pyrazin-1(2H)-one)] |
| < 50 nM | < 10 nM | 50 to 100 nM | Cc1cn2nc(-c3cccc(-c4cccc(-c5cc6c(=O)n(CCNCCO)c(C)cn6n5)c4Cl)c3Cl)cc2c(=O)n1CCNCCO [Compound 52, 2,2′-(2,2′-dichloro-[1,1′-biphenyl]-3,3′-diyl)bis(5-(2-((2-hydroxyethyl)amino)ethyl)-6-methylpyrazolo[1,5-a]pyrazin-4(5H)-one)] |
